Experimental data from patent publication US4148795A, “Dithiocarbamate ester bactericides and fungicides” (American Cyanamid Company, priority 1976, dated 1979).
Several values for one entry are separate records, joined by “and”; a condition that tells them apart may be missing. Equal values may be shown once. Read-outs that look alike come from different tables or passages of the source.

Legend:
[1] = system: Collectotrichum lagenarium; experiment: Agar dilution plate; type: cell-based; conditions: Cl; 100 ppm, 72 hours at 23° C
Description: (§1) Test compounds were incorporated in a Sabouraud's dextrose agar in an amount sufficient to provide the active ingredient in a concentration of about 100 ppm. A twenty-ml. sample of the agar mixture is placed in a petri dish and permitted to solidify. An agar sample is inoculated with the test organism set forth below and then covered and incubated for a period of about 72 hours at 23° C. After incubation, growth observations are made. The test results are recorded and the test is repeated twice for the purpose of comparison.
(§2) The data obtained with a variety of test organisms is shown in the table below, and ratings are shown as 0 or 5. O indicates no control, 5 indicates 100% effectiveness of the test compound against the specified organism.
Cl= Collectotrichum lagenarium

[2] = system: Pythium de Baryanum; experiment: Agar dilution plate; type: cell-based; conditions: Pd; 100 ppm, 72 hours at 23° C
Description: as §1, §2

[3] = system: Monilinia fructicola; experiment: Agar dilution plate; type: cell-based; conditions: Mf; 100 ppm, 72 hours at 23° C
Description: as §1, §2

[4] = system: Aspergillus niger; experiment: Agar dilution plate; type: cell-based; conditions: An; 100 ppm, 72 hours at 23° C
Description: as §1, §2

[5] = system: Fusarium lycopersici; experiment: Agar dilution plate; type: cell-based; conditions: Fl; 100 ppm, 72 hours at 23° C
Description: as §1, §2

[6] = system: Rhizoctonia solani; experiment: Agar dilution plate; type: cell-based; conditions: Rs; 100 ppm, 72 hours at 23° C
Description: as §1, §2

[7] = system: Phytophthora infestans; type: in vivo; design: scale not given here; conditions: Tomato Late Blight, five days
[8] = system: Pseudomonas solaracaerum; type: cell-based
[9] = system: Staphylococcus aureus; type: cell-based; conditions: 100 ppm; subcultures 72 hours at 37° C; further: key: 0: No Effect; 9: Kill of Bacteria; 5: Stasis, but not Kill of all Bacteria
[10] = system: Xanthomonas vesicatoria; type: cell-based; conditions: 100 ppm; subcultures 72 hours at 37° C; further: key: 0: No Effect; 9: Kill of Bacteria; 5: Stasis, but not Kill of all Bacteria
[11] = system: Monilinia fructicola; experiment: Spore germination inhibition; type: cell-based; conditions: for inhibition at 1 ppm / inhibition at 10 ppm: 24 hours; for inhibition at 100 ppm: 24 h, read-out: % Inhibition of Spore Germination
Text: (§3) The test procedure involves the preparation of a 100, 10 or 1 ppm. suspension of test compound in water. The solutions are placed in one dram "opticlear" vials and separately inoculated with one drop of a spore suspension prepared from seven-day cultures of Aspergillus niger and 14-day old cultures of Monilinia fructicola and Stemphylium sarcinaeforme,all grown on potato-dextrose agar. The vials containing the separately inoculated solutions of test compounds are then capped and placed on a rotating tumbler for 24 hours to assure contact of the organism with the test compound. After 24 hours, the vials are removed and examined for inhibition of […].

[12] = system: Aspergillus niger; experiment: Spore germination inhibition; type: cell-based; conditions: 24 hours
Text: as §3

[13] = system: Stemphylium sarcinaeforme; experiment: Spore germination inhibition; type: cell-based; conditions: Stemphylium sarciniforme; for inhibition at 100 ppm: 24 h, read-out: % Inhibition of Spore Germination; for inhibition at 1 ppm / inhibition at 10 ppm: 24 hours
Text: as §3

[14] = system: Aerobacter aerogenes; type: cell-based; conditions: 100 ppm; subcultures 72 hours at 37° C; further: key: 0: No Effect; 9: Kill of Bacteria; 5: Stasis, but not Kill of all Bacteria
[15] = system: Venturia inaequalis; conditions: in vivo; further: key: 5: clean, no disease; 4: trace of disease; 3: slight disease; 2: moderate disease; 1: severe disease; 0: like controls
[16] = system: Stemphylium sarcinaeforme; experiment: Agar dilution plate; type: cell-based; conditions: Ss; 100 ppm, 72 hours at 23° C
Description: as §1, §2
Ss= Stemphylium sarcinaeforme

[17] = system: Piricularia oryzae; type: in vivo; design: scale not given here; conditions: Rice Blast, five days
[18] = system: Verticillium albo-atrum; experiment: Agar dilution plate; type: cell-based; conditions: Va; 100 ppm, 72 hours at 23° C
Description: as §1, §2
Va= Verticillium albo-atrum

| SMILES | Agar Dilution Plate rating [1] | Agar Dilution Plate rating [2] | Agar Dilution Plate rating [3] | Agar Dilution Plate rating [4] | Agar Dilution Plate rating [5] | Agar Dilution Plate rating [6] | disease control index ([7]; 150 ppm) | disease control index ([7]; 300 ppm) | disease control index ([7]; 600 ppm) | disease control index ([7]; 1200 ppm) | Agar Dilution Plate rating ([8]; 100 ppm, 72 hours at 23° C) | Antibacterial Activity rating [9] | Antibacterial Activity rating [10] | inhibition at 1 ppm [11] [%] | Antibacterial Activity rating [14] | disease control index [15] | Agar Dilution Plate rating [16] | disease control index ([17]; 150 ppm) | disease control index ([17]; 300 ppm) | Agar Dilution Plate rating [18] | further results |
| --- | --- | --- | --- | --- | --- | --- | --- | --- | --- | --- | --- | --- | --- | --- | --- | --- | --- | --- | --- | --- | --- |
| CN(C)C(=S)SC(C[N+](=O)[O-])c1ccccc1Cl (stereo not drawn) [Example 27, o-Chloro-α-(nitromethyl)benzyl Dimethyldithiocarbamate] | 5 (100% effectiveness of the test compound against the specified organism) | 5 (100% effectiveness of the test compound against the specified organism) | 5 (100% effectiveness of the test compound against the specified organism) | 0 | 5 (100% effectiveness of the test compound against the specified organism) | 0 | 2 | 2 | 4 | 4 | 0 | 5 | 5 | 0 | 9 | 5 and 0 | 5 (100% effectiveness of the test compound against the specified organism) | 2 | 4 | 5 (100% effectiveness of the test compound against the specified organism) | inhibition at 10 ppm [11]: 100%; inhibition at 100 ppm [11]: 100%; inhibition at 1 ppm [12]: 0%; inhibition at 10 ppm [12]: 100%; inhibition at 100 ppm [12]: 100%; inhibition at 100 ppm [13]: 100%; inhibition at 1 ppm [13]: 100%; inhibition at 10 ppm [13]: 100%; disease control index ([17]; 600 ppm): 4; disease control index ([17]; 1200 ppm): 4 |
| CN(C)C(=S)SC(C[N+](=O)[O-])c1cccs1 (stereo not drawn) [Example 33, α-(Nitromethyl)-2-thenyl Dimethyldithiocarbamate] | 5 (100% effectiveness of the test compound against the specified organism) | 0 | 5 (100% effectiveness of the test compound against the specified organism) | 0 | 0 | 0 | 5 | 5 |  |  | 0 | 5 | 0 | 100 | 0 | 5 | 5 (100% effectiveness of the test compound against the specified organism) | 5 | 5 | 0 | inhibition at 10 ppm [11]: 100%; inhibition at 100 ppm [11]: 100%; inhibition at 1 ppm [12]: 0%; inhibition at 10 ppm [12]: 100%; inhibition at 100 ppm [12]: 100%; inhibition at 100 ppm [13]: 100%; inhibition at 1 ppm [13]: 100%; inhibition at 10 ppm [13]: 100% |
| CN(C)C(=S)SCC(SC(=S)N(C)C)C(=O)c1ccccc1 (centres unmarked) [Example 11] | 5 (100% effectiveness of the test compound against the specified organism) | 0 | 5 (100% effectiveness of the test compound against the specified organism) | 0 | 0 | 0 |  |  |  |  | 0 | 5 | 0 |  | 0 | 5 | 0 |  |  | 0 | disease control index ([7]; at 100 ppm): 3; disease control index ([7]; at 500 ppm): 4; disease control index ([17]; at 75 ppm): 3; disease control index ([17]; at 500 ppm): 4 |
| CN(C)C(=S)SC(C[N+](=O)[O-])c1ccc(Cl)cc1Cl (stereo not drawn) [Example 17, 2,4-Dichloro-α-(nitromethyl)benzyl Dimethyldithiocarbamate] | 5 (100% effectiveness of the test compound against the specified organism) | 0 | 0 | 0 | 0 | 0 | 0 | 4 | 5 | 5 | 0 | 5 | 0 |  | 0 | 5 and 0 | 0 | 3 | 5 | 5 (100% effectiveness of the test compound against the specified organism) | disease control index ([17]; 600 ppm): 5; disease control index ([17]; 1200 ppm): 5 |
| CC(C)c1ccc(C(C[N+](=O)[O-])SC(=S)N(C)C)cc1 (stereo not drawn) [Example 26, p-Isopropyl-α-(nitromethyl)benzyl Dimethyldithiocarbamate] | 5 (100% effectiveness of the test compound against the specified organism) | 5 (100% effectiveness of the test compound against the specified organism) | 5 (100% effectiveness of the test compound against the specified organism) | 0 | 0 | 5 (100% effectiveness of the test compound against the specified organism) | 3 | 4 | 4 | 5 | 0 | 5 | 0 |  | 0 | 5 and 0 | 5 (100% effectiveness of the test compound against the specified organism) | 4 | 4 | 5 (100% effectiveness of the test compound against the specified organism) | disease control index ([17]; 600 ppm): 5; disease control index ([17]; 1200 ppm): 5 |
| CC(=O)C(CSC(=S)N(C)C)SC(=S)N(C)C (centres unmarked) [Example 10, Acetylethylene Dimethyldithiocarbamate] | 5 (100% effectiveness of the test compound against the specified organism) | 5 (100% effectiveness of the test compound against the specified organism) | 5 (100% effectiveness of the test compound against the specified organism) | 5 (100% effectiveness of the test compound against the specified organism) | 5 (100% effectiveness of the test compound against the specified organism) | 5 (100% effectiveness of the test compound against the specified organism) |  |  |  |  |  | 9 | 5 | 100 | 9 |  | 5 (100% effectiveness of the test compound against the specified organism) |  |  | 5 (100% effectiveness of the test compound against the specified organism) | disease control index ([7]; at 100 ppm): 4; disease control index ([7]; at 500 ppm): 5; Agar Dilution Plate rating [8]: 0; inhibition at 10 ppm [11]: 100%; inhibition at 100 ppm [11]: 100%; inhibition at 1 ppm [12]: 100%; inhibition at 10 ppm [12]: 100%; inhibition at 100 ppm [12]: 100%; inhibition at 100 ppm [13]: 100%; inhibition at 1 ppm [13]: 100%; inhibition at 10 ppm [13]: 100%; disease control index ([17]; at 75 ppm): 4; disease control index ([17]; at 500 ppm): 5 |
